Assay results taken from US20230146455A1, “TREATMENT OF INFLAMMATORY DISEASES WITH PEPTIDES AND PHARMACEUTICAL COMPOSITIONS” (Yuyu Pharma, Inc., priority 2020, published 2023).
“And” between values parts separate entries of the source, which are not always exact repeats. Equal entries are not always repeated. Where a SMILES comes first, the peptide text is derived from it. [ ]: non-standard residue; d: D form. Hyp = O=C(O)[C@@H]1C[C@@H](O)CN1

Assays:
IL-8 = experiment: Example 9 Luminex, LPS hPBMCs: IL-8; format: cell-based, human
Protocol: (§1) Treatment Human PBMCs were pretreated with YY-101, YDE-011 and YDE-043 or reference compound; Xiidra® at various concentration (ranging from 1 nM to 100 uM) for 2 h before stimulation. An equal volume of 0.5% DMSO was used as a vehicle control. Then, the cells were treated with LPS at 5 ug/ml. The supernatants from treated cells were harvested at 24 h and placed in a 96 well for Luminex cytokine & chemokine profiling using a Luminex 200 multiplex assay (Luminex; R&D system, USA).
(§2) The main study arm with triplicate wells per group in a 24-well plate: • 1. Blank • 2. PBMC: 0.5% DMSO • 3. PBMC+LPS (5 ug/ml) • 4. PBMC+YY-101 100 uM • 5. PBMC+YY-101 10 uM • 6. PBMC+YY-101 1 uM • 7. PBMC+YY-101 0.1 uM • 8. PBMC+YY-101 0.01 uM • 9. PBMC+LPS (5 ug/ml)+Xiidra®100 uM • 10. PBMC+LPS (5 ug/ml)+Xiidra® 10 uM • 11. PBMC+LPS (5 ug/ml)+Xiidra® 1 uM • 12. PBMC+LPS (5 ug/ml)+Xiidra®0.1 uM • 13. PBMC+LPS (5 ug/ml)+Xiidra®0.01 uM • 14. PBMC+LPS (5 ug/ml)+Xiidra®0.001 uM • 15. PBMC+LPS (5 ug/ml)+YY-101 100 uM • 16. PBMC+LPS (5 ug/ml)+YY-101 10 uM • 17. PBMC+LPS (5 ug/ml)+YY-101 1 uM • 18. PBMC+LPS (5 ug/ml)+YY-101 0.1 uM • 19. PBMC+LPS (5 ug/ml)+YY-101 0.01 uM • 20. PBMC+LPS (5 ug/ml)+YY-101 0.001 uM • 21. PBMC+LPS (5 ug/ml)+YDE-011 100 uM • 22. PBMC+LPS (5 ug/ml)+YDE-011 10 uM • 23. PBMC+LPS (5 ug/ml)+YDE-011 1 uM • 24. PBMC+LPS (5 ug/ml)+YDE-011 0.1 uM • 25. PBMC+LPS (5 ug/ml)+YDE-011 0.01 uM • 26. PBMC+LPS (5 ug/ml)+YDE-011 0.001 uM • 27. PBMC+LPS (5 ug/ml)+YDE-043 100 uM • 28. PBMC+LPS (5 ug/ml)+YDE-043 10 uM • 29. PBMC+LPS (5 ug/ml)+YDE-043 1 uM • 30. PBMC+LPS (5 ug/ml)+YDE-043 0.1 uM • 31. PBMC+LPS (5 ug/ml)+YDE-043 0.01 uM • 32. PBMC+LPS (5 ug/ml)+YDE-043 0.001 uM
(§3) Multiplex assay was used to measure 30 cytokines and chemokines. The 1:2, 1:10 and 1:200 diluted cell supernatant and serial dilution of the standard were dispensed into a 96 well plate at 50 ul/well. Then, the pre-mixed cocktail of antibody-coated magnetic beads was dispensed at 50 ul/well and incubated at room temperature for 2 h in a horizontal orbital microplate shaker at 800±500 rpm. The beads were washed using a magnetic device to prevent loss. The biotin-antibody was dispensed in 50 ul of each well and incubated at room temperature for 1 h in a shaker at 800±500 rpm. After washing, streptavidin-PE was added at 50 ul/well and incubated at room temperature for 30 min in a shaker under the same conditions. Finally, after washing, wash buffer (100 ul/well) was added to the plate and incubated in a shaker for 2 min. The Luminex™ 200 setting were set according to the manufacturer's protocol. The data was calculated with a standard five-parameter logistic nonlinear regression analysis of the data (xPonent software 4.2, USA). The levels of cytokine/chemokine are normalized to the live cell counts (1×10^5 cells/mL) and presented as concentrations per mL (pg/mL or ng/mL).

CCL3/MIP-1 alpha = experiment: Example 9 Luminex, LPS hPBMCs: CCL3/MIP-1 alpha; format: cell-based, human
Protocol: as §1, §2, §3

[1] = PBMC + LPS(5 ug/ml) + test article 0.001 uM, Mean
[2] = PBMC + LPS(5 ug/ml) + test article 0.001 uM, single replicates (1st, 2nd, 3rd)
[3] = PBMC + LPS(5 ug/ml) + test article 0.01 uM, Mean
[4] = PBMC + LPS(5 ug/ml) + test article 0.01 uM, single replicates (1st, 2nd, 3rd)
[5] = PBMC + LPS(5 ug/ml) + test article 0.1 uM, Mean
[6] = PBMC + LPS(5 ug/ml) + test article 0.1 uM, single replicates (1st, 2nd, 3rd)
[7] = PBMC + LPS(5 ug/ml) + test article 1 uM, Mean
[8] = PBMC + LPS(5 ug/ml) + test article 1 uM, single replicates (1st, 2nd, 3rd)
[9] = PBMC + LPS(5 ug/ml) + test article 10 uM, Mean
[10] = PBMC + LPS(5 ug/ml) + test article 10 uM, single replicates (1st, 2nd, 3rd)
[11] = PBMC + LPS(5 ug/ml) + test article 100 uM, Mean
[12] = PBMC + LPS(5 ug/ml) + test article 100 uM, single replicates (1st, 2nd, 3rd)
[13] = PBMC + LPS(5 ug/ml) + test article 0.001 uM, individual replicates
[14] = PBMC + LPS(5 ug/ml) + test article 0.01 uM, individual replicates
[15] = PBMC + LPS(5 ug/ml) + test article 0.1 uM, individual replicates
[16] = PBMC + LPS(5 ug/ml) + test article 1 uM, individual replicates
[17] = PBMC + LPS(5 ug/ml) + test article 10 uM, individual replicates
[18] = PBMC + LPS(5 ug/ml) + test article 100 uM, individual replicates

With `CC(C)C[C@H](NC(=O)CNC(=O)[C@H](CC(C)C)NC(=O)[C@H](CCC(N)=O)NC(=O)CNC(=O)[C@@H]1C[C@@H](O)CN1)C(=O)N[C@@H](C)C(=O)NCC(=O)N1CCC[C@H]1C(=O)N[C@@H](CCCCN)C(=O)O` [YDE-011] (H-[Hyp]GQLGLAGPK-OH) the Concentration (IL-8; [1]) was 26175.1 pg/mL, the conc/live cell (IL-8; [1]) was 4943.8 pg/10^5 and the Concentration (IL-8; [2]) was 25949.1 pg/mL and 25243.2 pg/mL and 27333.0 pg/mL. The conc/live cell (IL-8; [2]) was 5766.5 pg/10^5 and 4352.3 pg/10^5 and 4712.6 pg/10^5, the Concentration (IL-8; [3]) was 27857.4 pg/mL and the conc/live cell (IL-8; [3]) was 4784.6 pg/10^5. For the same compound, the Concentration (IL-8; [4]) was 29106.4 pg/mL and 27148.3 pg/mL and 27317.6 pg/mL, the conc/live cell (IL-8; [4]) was 4694.6 pg/10^5 and 5323.2 pg/10^5 and 4336.1 pg/10^5 and the Concentration (IL-8; [5]) was 25867.3 pg/mL. For the same compound, the conc/live cell (IL-8; [5]) was 4548.1 pg/10^5, the Concentration (IL-8; [6]) was 25672.8 pg/mL and 26225.6 pg/mL and 25703.5 pg/mL and the conc/live cell (IL-8; [6]) was 3889.8 pg/10^5 and 5245.1 pg/10^5 and 4509.4 pg/10^5. For the same compound, the Concentration (IL-8; [7]) was 25627.6 pg/mL, the conc/live cell (IL-8; [7]) was 5106.9 pg/10^5 and the Concentration (IL-8; [8]) was 26271.7 pg/mL and 26379.3 pg/mL and 24231.7 pg/mL. For the same compound, the conc/live cell (IL-8; [8]) was 4776.7 pg/10^5 and 5495.7 pg/10^5 and 5048.3 pg/10^5, the Concentration (IL-8; [9]) was 25105.4 pg/mL and the conc/live cell (IL-8; [9]) was 4765.2 pg/10^5. The Concentration (IL-8; [10]) was 25626.7 pg/mL and 25335.2 pg/mL and 24354.2 pg/mL, the conc/live cell (IL-8; [10]) was 4745.7 pg/10^5 and 4368.1 pg/10^5 and 5181.8 pg/10^5 and the Concentration (IL-8; [11]) was 26038.5 pg/mL. For the same compound, the conc/live cell (IL-8; [11]) was 4290.3 pg/10^5, the Concentration (IL-8; [12]) was 27702.6 pg/mL and 26563.8 pg/mL and 23849.1 pg/mL and the conc/live cell (IL-8; [12]) was 4541.4 pg/10^5 and 4354.7 pg/10^5 and 3974.8 pg/10^5. The Concentration (CCL3/MIP-1 alpha; [1]) was 7478.7 pg/mL, the conc/live cell (CCL3/MIP-1 alpha; [1]) was 1414.4 pg/10^5 and the Concentration (CCL3/MIP-1 alpha; [13]) was 7525.9 pg/mL and 7321.9 pg/mL and 7588.4 pg/mL. For the same compound, the conc/live cell (CCL3/MIP-1 alpha; [13]) was 1672.4 pg/10^5 and 1262.4 pg/10^5 and 1308.3 pg/10^5, the Concentration (CCL3/MIP-1 alpha; [3]) was 7584.1 pg/mL and the conc/live cell (CCL3/MIP-1 alpha; [3]) was 1304.0 pg/10^5. The Concentration (CCL3/MIP-1 alpha; [14]) was 7600.8 pg/mL and 7525.9 pg/mL and 7625.5 pg/mL, the conc/live cell (CCL3/MIP-1 alpha; [14]) was 1225.9 pg/10^5 and 1475.7 pg/10^5 and 1210.4 pg/10^5 and the Concentration (CCL3/MIP-1 alpha; [5]) was 7103.9 pg/mL. For the same compound, the conc/live cell (CCL3/MIP-1 alpha; [5]) was 1250.7 pg/10^5, the Concentration (CCL3/MIP-1 alpha; [15]) was 6974.8 pg/mL and 7334.8 pg/mL and 7002.2 pg/mL and the conc/live cell (CCL3/MIP-1 alpha; [15]) was 1056.8 pg/10^5 and 1467.0 pg/10^5 and 1228.5 pg/10^5. The Concentration (CCL3/MIP-1 alpha; [7]) was 7537.7 pg/mL, the conc/live cell (CCL3/MIP-1 alpha; [7]) was 1505.0 pg/10^5 and the Concentration (CCL3/MIP-1 alpha; [16]) was 7399.2 pg/mL and 7613.2 pg/mL and 7600.8 pg/mL. For the same compound, the conc/live cell (CCL3/MIP-1 alpha; [16]) was 1345.3 pg/10^5 and 1586.1 pg/10^5 and 1583.5 pg/10^5, the Concentration (CCL3/MIP-1 alpha; [9]) was 7734.7 pg/mL and the conc/live cell (CCL3/MIP-1 alpha; [9]) was 1473.3 pg/10^5. For the same compound, the Concentration (CCL3/MIP-1 alpha; [17]) was 7962.5 pg/mL and 7373.5 pg/mL and 7868.0 pg/mL, the conc/live cell (CCL3/MIP-1 alpha; [17]) was 1474.5 pg/10^5 and 1271.3 pg/10^5 and 1674.0 pg/10^5 and the Concentration (CCL3/MIP-1 alpha; [11]) was 7968.8 pg/mL. The conc/live cell (CCL3/MIP-1 alpha; [11]) was 1313.3 pg/10^5, the Concentration (CCL3/MIP-1 alpha; [18]) was 8238.4 pg/mL and 8067.3 pg/mL and 7600.8 pg/mL and the conc/live cell (CCL3/MIP-1 alpha; [18]) was 1350.6 pg/10^5 and 1322.5 pg/10^5 and 1266.8 pg/10^5.
